The target of one data set is T1, Schweinepankreaslipase (Sus scrofa, UniProt P00591).
T1 sequence (P00591 1-450): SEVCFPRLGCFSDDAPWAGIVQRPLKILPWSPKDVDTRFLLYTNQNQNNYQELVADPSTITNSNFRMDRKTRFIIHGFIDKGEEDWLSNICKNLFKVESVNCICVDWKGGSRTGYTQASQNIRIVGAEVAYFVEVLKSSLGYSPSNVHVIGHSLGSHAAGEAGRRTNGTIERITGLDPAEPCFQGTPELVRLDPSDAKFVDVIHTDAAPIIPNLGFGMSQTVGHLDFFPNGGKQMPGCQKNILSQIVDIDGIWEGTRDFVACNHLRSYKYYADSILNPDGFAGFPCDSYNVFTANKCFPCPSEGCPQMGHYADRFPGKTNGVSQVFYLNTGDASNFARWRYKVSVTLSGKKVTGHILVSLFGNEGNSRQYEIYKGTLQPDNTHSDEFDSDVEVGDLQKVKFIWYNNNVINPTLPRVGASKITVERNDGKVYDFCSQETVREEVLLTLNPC
The experiment in a line: Inhibition of pancreatic lipase (titrimetric measurement of oleic acid released from triolein). The following applies: substrate triolein emulsion, pH 8, NaOH consumption over 10 min, 1-3 µg lipase; concentration giving half-maximal inhibition of lipase activity; read-out: IC₅₀ (converted). Format: biochemical, Schwein. The procedure:
Die Hemmung der Pankreaslipase durch die Oxetanone der Formel I kann experimentell gezeigt werden, indem man die bei der Spaltung von Triolein durch Schweinepankreaslipase freigesetzte Oelsäure titrimetrisch erfasst. Zu einer Emulsion, welche 1 mM Taurodeoxycholat, 9 mM Taurocholat, 0,1 mM Cholesterin, 1 mM Eilezithin, 15 mg/ml BSA, 2 mM Tris-HCl, 100 mM Natriumchlorid, 1 mM Calciumchlorid und das Substrat Triolein enthält, gibt man die in Aethanol oder Dimethylsulfoxid (10% des Emulsionsvolumens) gelöste Verbindung der Formel I und startet die Reaktion durch Zugabe von 1-3 µg Schweinepankreaslipase. Das pH wird während der Reaktion durch Zugabe von Natronlauge bei 8 gehalten. Aus dem während 10 Minuten ermittelten Verbrauch an Natronlauge wird die IC₅₀ berechnet. Die IC₅₀ ist diejenige Konzentration, bei der die Lipaseaktivität halbmaximal gehemmt wird. Die nachfolgende Tabelle enthält die für die Verbindungen der Formel I ermittelten IC₅₀-Werte in µg/ml.

Data set [1] is described as follows: Acute toxicity after a single oral administration. The following applies: mouse, in vivo, mice, read-out: akute Toxizität. The procedure:
Die akute Toxizität (nach einmaliger oraler Verabreichung an Mäusen) beträgt mehr als 5000 mg/kg für die Produkte der Beispiele 3d, 3h, 3i, 3l, 4a und 10a, b, e und f.

Each structure is given as a SMILES string.

As to `CCCCCCCCCCC[C@@H](C[C@@H]1OC(=O)[C@H]1CCCCCC)OC(=O)C(CCC)C(N)=O` (mixture of isomers) [Beispiel 2d, (S)-1-[[(2S,3S)-3-Hexyl-4-oxo-2-oxetanyl]methyl]-dodecyl-(RS) -2-carbamoylvalerat], the IC50 at Schweinepankreaslipase is 249 nM.
Still for that read-out and setting: for `CCCCCCCCCCC[C@@H](C[C@@H]1OC(=O)[C@H]1CCCCCC)OC(=O)C(CC(C)C)C(N)=O` (mixture of isomers) [Beispiel 3f, (S)-1-[[(2S,3S)-3-Hexyl-4-oxo-2-oxetanyl]methyl]dodecyl-(RS)-2-carbamoyl-4-methylvalerat] the value was 167 nM.
Consider `CCCCCCCCCCC[C@@H](C[C@@H]1OC(=O)[C@H]1CCCCCC)OC(=O)C(C)C(N)=O` (mixture of isomers) [Beispiel 3i, (S)-1-[[(2S,3S)-3-Hexyl-4-oxo-2-oxetanyl]methyl]dodecyl-(RS)-2-methylmalonamat], for which, on Schweinepankreaslipase, the IC50 was 926 nM. The LD50 in data set [1] was > 5000 mg/kg.
In the case of `CCCCCCCCCCC[C@@H](C[C@@H]1OC(=O)[C@H]1CCCCCC)OC(=O)C(CCCC)C(N)=O` (mixture of isomers) [Beispiel 3k, (S)-1-[[(2S,3S)-3-Hexyl-4-oxo-2-oxetanyl]methyl]dodecyl-(RS)-2-butylmalonamat], at Schweinepankreaslipase, the IC50 is 242 nM.
`CCCCCCCCCCCCCCCCC[C@@H](C[C@@H]1OC(=O)[C@H]1CC)OC(=O)C(C(N)=O)C(C)C` (single isomer, unassigned) [Beispiel 1a]: the IC50 at Schweinepankreaslipase is 62.8 nM.
The same measure, in the same setting: to `CCCCCCCCCCCCCCCCC[C@@H](C[C@@H]1OC(=O)[C@H]1CC)OC(=O)C(C(N)=O)C(C)C` (single isomer, unassigned) [Beispiel 1b] belongs 49 nM; to `CCCCCCCCCCC[C@@H](C[C@@H]1OC(=O)[C@H]1CCCCCC)OC(=O)C(C(N)=O)C(C)C` (single isomer, unassigned) [Beispiel 2b], 131 nM; to `CCCCC/C=C\C/C=C\CCCCCCC[C@@H](C[C@@H]1OC(=O)[C@H]1CC)OC(=O)C(C(N)=O)C(C)C` (single isomer, unassigned) [Beispiel 2g1], 103 nM.
Same read-out and setting: for `CCCCC/C=C\C/C=C\CCCCCCC[C@@H](C[C@@H]1OC(=O)[C@H]1CC)OC(=O)C(C(N)=O)C(C)C` (single isomer, unassigned) [Beispiel 2g2] the value was 25.7 nM.
The same measure, in the same setting: to `CCCCCCCCCCC[C@@H](C[C@H]1OC(=O)[C@@H]1Cc1ccccc1)OC(=O)C(C(N)=O)C(C)C` (single isomer, unassigned) [Beispiel 7b] belongs 162 nM; to `CCCCCCCCCCCCCCCCC[C@@H](C[C@@H]1OC(=O)[C@H]1CC)OC(=O)C(C(N)=O)C(C)(C)C` (single isomer, unassigned) [Beispiel 37], 64.9 nM; to `CCCCCCCCCCCCCCCCC[C@@H](C[C@@H]1OC(=O)[C@H]1CC)OC(=O)C(CCC)C(N)=O` (stereo partly drawn) [Beispiel 2e, (S)-1-[[(2S,3S)-3-Aethyl-4-oxo-2-oxetanyl]-methyl]octadecyl-(RS)-2-carbamoylvalerat], 100 nM.
Regarding `CCCCCCCCCCCCCCCCC[C@@H](C[C@@H]1OC(=O)[C@H]1CC)OC(=O)C1(C(N)=O)OCCO1` [Beispiel 2f, (S)-1-[[(2S,3S)-3-Aethyl-4-oxo-2-oxetanyl]-methyl]octadecyl-2-carbamoyl-1,3-dioxolan-2-carboxylat], the IC50 on Schweinepankreaslipase is 894 nM.
The same measure, in the same setting: to `CCCCCCCCCCC[C@@H](C[C@@H]1OC(=O)[C@H]1CCCCCC)OC(=O)CC(N)=O` [Beispiel 3c, 2-Carbamoylessigsäure-(S)-1-[[(2S,3S)-3-hexyl-4-oxo-2-oxetanyl]methyl]dodecylester] belongs 887 nM.
For `CCCCCCCCCCC[C@@H](C[C@@H]1OC(=O)[C@H]1CCCCCC)OC(=O)C(N)=O` [Beispiel 3d, (S)-1-[[(2S,3S)-3-Hexyl-4-oxo-2-oxetanyl]methyl]dodecyloxamat], the IC50 at Schweinepankreaslipase is 2110 nM. Moreover, the LD50 in data set [1] is > 5000 mg/kg.
For `CCCCCCCCCCC[C@@H](C[C@@H]1OC(=O)[C@H]1CCCCCC)OC(=O)CC(=O)NC` [Beispiel 3e, (S)-1-[[(2S,3S)-3-Hexyl-4-oxo-2-oxetanyl]methyl]dodecyl -N-methylmalonamat], the IC50 on Schweinepankreaslipase is 3110 nM.
The same measure, in the same setting: to `CCCCCCCCCCC[C@@H](C[C@@H]1OC(=O)[C@H]1CCCCCC)OC(=O)C1(C(N)=O)CCCCC1` [Beispiel 3g, (S)-1-[[(2S,3S)-3-Hexyl-4-oxo-2-oxetanyl]methyl]dodecyl-1-carbamoylcydohexancarboxylat] belongs 579 nM.
With `CCCCCCCCCCC[C@@H](C[C@@H]1OC(=O)[C@H]1CCCCCC)OC(=O)C(C)(C)C(N)=O` [Beispiel 3h, (S)-1-[[(2S,3S)-3-Hexyl-4-oxo-2-oxetanyl]methyl]dodecyl-2,2-dimethylmalonamat], the IC50 on Schweinepankreaslipase was 4490 nM. The LD50 in data set [1] is > 5000 mg/kg.
In the case of `CCCCCCCCCCC[C@@H](C[C@@H]1OC(=O)[C@H]1CCCCCC)OC(=O)C(CC)C(N)=O` (stereo partly drawn) [Beispiel 3j, (S)-1-[[(2S,3S)-3-Hexyl-4-oxo-2-oxetanyl]methyl]dodecyl-(RS)-2-äthylmalonamat], the IC50 on Schweinepankreaslipase is 342 nM.
Turning to `CCCCCCCCCCC[C@@H](C[C@@H]1OC(=O)[C@H]1CCCCCC)OC(=O)C(CC)(CC)C(N)=O` [Beispiel 3l, (S)-1-[[(2S,3S)-3-Hexyl-4-oxo-2-oxetanyl]methyl]dodecyl-2,2-diäthylmalonamat], the IC50 at Schweinepankreaslipase is 1570 nM. The LD50 in data set [1] is > 5000 mg/kg.
Take `CCCCCCCCCCCCCCCCC[C@@H](C[C@@H]1OC(=O)[C@H]1CC)OC(=O)C1(C(N)=O)CCCCC1` [Beispiel 4a, (S)-1-[[(2S,3S)-3-Aethyl-4-oxo-2-oxetanyl]methyl]octadecyl-1-carbamoylcyclohexancarboxylat]: the IC50 at Schweinepankreaslipase is 299 nM. The LD50 in data set [1] is > 5000 mg/kg.
On to `CCCCCCCCCCC[C@@H](CC1OC(=O)C1SCCCCC)OC(=O)C(C(N)=O)C(C)C` (stereo partly drawn) [Beispiel 6b, (S)-1-[[(2S,3S oder 2R,3R)-4-Oxo-3-pentylthio-2-oxetanyl]methyl]-dodecyl-[S:R oder R:S(2:1)]-2-isopropylmalonamat], for which the IC50 at Schweinepankreaslipase is 112 nM.
Consider `CCCCCCCCCCCCCCCCC[C@@H](C[C@@H]1OC(=O)[C@H]1CC)OC(=O)C(N)=O` [Beispiel 10a, (S)-1-[[(2S,3S)-3-Aethyl-4-oxo-2-oxetanyl]methyl]octadecyloxamat], for which the IC50 at Schweinepankreaslipase was 183 nM. For the same molecule, the LD50 in data set [1] is > 5000 mg/kg.
The corresponding values for `CCCCCCCCCCCCCCCCC[C@@H](C[C@@H]1OC(=O)[C@H]1CC)OC(=O)CC(N)=O` [Beispiel 10b, (S)-1-[[(2S,3S)-3-Aethyl-4-oxo-2-oxetanyl]methyl]octadecylmalonamat] are 89.8 nM and > 5000 mg/kg.
As to `CCCCCCCCCCCCCCCCC[C@@H](C[C@@H]1OC(=O)[C@H]1CC)OC(=O)CC(=O)NC` [Beispiel 10c, (S)-1-[[(2S,3S)-3-Aethyl-4-oxo-2-oxetanyl]methyl]octadecyl-N-methylmalonamat], at Schweinepankreaslipase, the IC50 was 208 nM.
On the same count and under the same terms, to `CCCCCCCCCCCCCCCCC[C@@H](C[C@@H]1OC(=O)[C@H]1CC)OC(=O)CC(=O)N(C)C` [Beispiel 10d, (S)-1-[[(2S,3S)-3-Aethyl-4-oxo-2-oxetanyl]methyl]octadecyl-N,N-dimethylmalonamat] belongs 948 nM; to `CCCCCCCCCCCCCCCCC[C@@H](C[C@@H]1OC(=O)[C@H]1CC)OC(=O)C1(C(N)=O)CCCC1` [Beispiel 43, (S)-1-[[(2S,3S)-3-Aethyl-4-oxo-2-oxetanyl]methyl]octadecyl-1-carbamoylcyclopentancarboxylat], 230 nM; to `CCCCCCCCCCC[C@@H](C[C@@H]1OC(=O)[C@H]1CCCCCC)OC(=O)C(Cc1ccccc1)C(N)=O` (stereo partly drawn) [Beispiel 45, (S)-1-[[(2S,3S)-3-Hexyl-4-oxo-2-oxetanyl]methyl]dodecyl-(RS)-2-benzylmalonomat], 88.7 nM.
On the same count and under the same terms, to `CCCCCCCCCCC[C@@H](C[C@@H]1OC(=O)[C@H]1CCCCCC)OC(=O)CCSCCC(N)=O` [Beispiel 51, (S)-1-[[(2S,3S)-3-Hexyl-4-oxo-2-oxetanyl]methyl]dodecyl-3-[(2-carbamoyläthyl)thio]propionat] belongs 701 nM; to `CCCCCCCCCCCCCCCCC[C@@H](C[C@@H]1OC(=O)[C@H]1CC)OC(=O)[C@H]1CCC(=O)N1` [Beispiel 78c, 5-Oxo-D-prolin-(S)-1-[[(2S,3S)-3-äthyl-4-oxo-2-oxetanyl]methyl]octadecyl-ester], 567 nM; to `CCCCCCCCCCCCCCCCC[C@@H](C[C@@H]1OC(=O)[C@H]1CC)OC(=O)[C@@H]1CCC(=O)N1` [Beispiel 78d, 5-Oxo-L-prolin-(S)-1-[[(2S,3S)-3-äthyl-4-oxetanyl]methyl]octadecyl-ester], 103 nM.

Values taken from EP0444482B1, “Oxetanones” (F. HOFFMANN-LA ROCHE AG, priority 1990, dated 1991).
